Results on 12 compounds are retold here after US11136320B2, “Fused ring derivative used as FGFR4 inhibitor” (JACOBIO PHARMACEUTICALS CO., LTD., priority 2019, dated 2021).

Data set [1] relates to Hepatoma cell Hep3B (high expression of FGFR4 and FGF19). Put plainly: Hepatoma cell proliferation inhibition experiment (MTS method). The note with it: for IC50: Homo sapiens, Hep3B, read-out: Hep3B(IC50 μM). In kind it is cell-based. An excerpt: In this experiment, the MTS method was used to test the inhibitory effect of the compounds on the proliferation of Hepatoma cell Hep3B (high expression of FGFR4 and FGF19), and the half inhibitory concentration IC50 of the compounds to Hep3B was obtained. The Hep3B cell line was purchased from ATCC, and the complete culture medium of the Hep3B cell line was MEM+10% FBS+1% PS. MEM cell culture medium, fetal bovine serum, and trypsin were purchased from Gibco, cell culture flasks were purchased from Greiner, and disposable Cell Counting Plate and Taittinger Blue Solution were purchased from Bio-Rad.
(1) 100 μl Hepatoma cell Hep3B suspension was seeded in a 96-well cell culture plate, and the density of each well was 2.0×10^4 cells/ml.
(3) A mixture of MTS (3-(4,5-dimethylthiazol-2-yl)-5-(3-carboxymethoxyphenyl)-2-(4-sulfophenyl)-2H-tetrazolium)/PMS (phenazine methosulfate) was added into each well for coloration, and MTS/PMS in the mixture was at a ratio of 20:1 (ml:ml). 30 μl of the mixture was added into each well of the culture plate above mentioned in step (2), then the culture plate was incubated for 3 h in the incubator.
(5) The inhibition rate was calculated by the […];
(6) According to the inhibition rate of the different concentrations, the IC50 values of the compounds were obtained by curve fitting.
(Tetrazolium dyes change colour on reduction, which living cells bring about.)

Another data set can be described thus: PK analysis of rats. In kind it is in vivo. To be noted: SD rats, p.o. (10 mg/kg); for AUC(0-t) / Cmax: rat, plasma, po; for AUC(0-t): read-out: Curve area AUC0-24 h; for Cmax: read-out: Drug concentration in blood Cmax. The method, then:
In the present invention, the pharmacokinetics experiment of the compounds in rats was performed using the SD rats (Vitolihua).
(1) Mode of administration: single gavage administration and intravenous injection administration.
(2) Dosage: 10 mg/kg in the gavage administration, 3 mg/kg in the intravenous injection administration.
Gavage administration: before administration, 15 min, 30 min, 1 h, 2 h, 4 h, 6 h, 8 h, 24 h; […]
(4) Sample processing: 200 μL of orbital blood was collected at each sampling time point. After anticoagulation with heparin, the blood was centrifuged at 5500 rpm for 10 min, and 60 μL of the supernatant was taken and put into the refrigerator at −80° C. for waiting for testing.
Samples obtained after administration of Compound 1 were tested using 4000 LC-MS/MS analyzer, wherein, the chromatographic separation conditions for testing were:
Samples obtained after administration of Compound 7 were tested using 4000 LC-MS/MS analyzer, wherein, the chromatographic separation conditions for testing were:
Samples obtained after administration of Compound 16 were tested using 4000 LC-MS/MS analyzer, wherein, the chromatographic separation conditions for testing were: […]

The target of data set [2] is T1, FGFR4 kinase (Homo sapiens (Human), UniProt P22455).
In data set [3] the target is T1, FGFR4 kinase. Briefly: biochemical.

pIC50: −log10 of the molar value. Read-outs that look alike come from different tables or passages of the source.

T1 sequence (P22455 22-802): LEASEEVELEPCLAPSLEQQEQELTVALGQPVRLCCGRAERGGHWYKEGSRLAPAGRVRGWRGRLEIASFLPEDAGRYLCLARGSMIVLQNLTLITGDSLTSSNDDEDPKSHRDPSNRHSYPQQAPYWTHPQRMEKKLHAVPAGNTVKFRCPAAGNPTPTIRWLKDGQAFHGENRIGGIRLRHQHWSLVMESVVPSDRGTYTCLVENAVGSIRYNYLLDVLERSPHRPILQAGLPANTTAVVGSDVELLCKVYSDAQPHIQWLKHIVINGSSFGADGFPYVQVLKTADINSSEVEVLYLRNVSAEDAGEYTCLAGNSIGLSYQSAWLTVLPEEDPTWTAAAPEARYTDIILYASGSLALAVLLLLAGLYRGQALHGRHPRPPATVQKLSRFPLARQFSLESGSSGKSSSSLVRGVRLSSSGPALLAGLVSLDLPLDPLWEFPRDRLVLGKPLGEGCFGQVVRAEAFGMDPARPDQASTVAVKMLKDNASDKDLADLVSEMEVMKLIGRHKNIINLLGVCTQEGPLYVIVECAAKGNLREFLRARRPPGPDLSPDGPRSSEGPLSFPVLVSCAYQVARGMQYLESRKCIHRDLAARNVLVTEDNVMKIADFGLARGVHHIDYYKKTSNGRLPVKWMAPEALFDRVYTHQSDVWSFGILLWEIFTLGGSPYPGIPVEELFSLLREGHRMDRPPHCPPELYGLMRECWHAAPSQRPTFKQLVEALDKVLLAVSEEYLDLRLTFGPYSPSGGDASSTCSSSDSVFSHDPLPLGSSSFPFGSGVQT

For the compound `CN1CCN(Cc2cc3c(nc2C=O)N(C(=O)Nc2cc(NCc4nccs4)c(C#N)cn2)CCC3)C(=O)C1` [Compound 56, N-(5-cyano-4-((thiazol-2-yl-methyl)amino)pyridin-2-yl)-7-formyl-6-((4-methyl-2-oxopiperazin-1-yl)methyl)-3,4-dihydro-1,8-naphthyridine-1(2H)-carboxamide], the “inhibitory effect on Hepatoma cell Hep3B compared with the reference compound” value in data set [1] is given as “better inhibitory effect”. In data set [1] (120 h incubation), the IC50 was 0.013 µM. Further, in the data set “PK analysis of rats”, the “exposure amount AUC0-24 h and maximum drug concentration in blood Cmax compared with the reference compound” value is given as “significantly higher than the reference compound”; the AUC(0-t) is 2010 ng·h/mL; the Cmax stood at 548 ng/mL. The “inhibitory effect on FGFR4 compared with the reference compound” value against FGFR4 kinase [2] is “better inhibitory effect on FGFR4 than the reference compound”. In addition, on FGFR4 kinase [3], the pIC50 is 8.80.
For the compound `CN1CCN(Cc2cc3c(nc2C=O)N(C(=O)Nc2cc(NC4CCSC4)c(C#N)cn2)CCC3)C(=O)C1` (stereo not drawn) [Compound 5, N-(5-cyano-4-((tetrahydrothiophene-3-yl)amino)pyridin-2-yl)-7-formyl-6-((4-methyl-2-oxopiperazin-1-yl)methyl)-3,4-dihydro-1,8-naphthyridine-1 (2H)-carboxamide], in “PK analysis of rats”, the “exposure amount AUC0-24 h and maximum drug concentration in blood Cmax compared with the reference compound” value is listed as “significantly higher than the reference compound”; the AUC(0-t) is 6730 ng·h/mL; the Cmax worked out at 1400 ng/mL. The “inhibitory effect on FGFR4 compared with the reference compound” value at FGFR4 kinase [2] is “better inhibitory effect on FGFR4 than the reference compound”. On FGFR4 kinase [3], the pIC50 is 8.70.
Turning to `CSCCNc1cc(NC(=O)N2CCCc3cc(CN(C)C(=O)[C@@H]4CCCO4)c(C=O)nc32)ncc1C#N.Cl` [Compound 75, (S)-N-(5-cyano-4-((2-(methylthio)ethyl)amino)pyridin-2-yl)-7-formyl-6-((N-methyltetrahydrofuran-2-carboxamido)methyl)-3,4-dihydro-1,8-naphthyridine-1(2H)-carboxamide hydrochloride], the IC50 in data set [1] (120 h incubation) was determined as 0.028 µM. Moreover, the “inhibitory effect on FGFR4 compared with the reference compound” value against FGFR4 kinase [2] is “better inhibitory effect on FGFR4 than the reference compound”. In addition, the pIC50 at FGFR4 kinase [3] is 8.74.
For the compound `CSCCNc1cc(NC(=O)N2CCCc3cc(CN(C)C(=O)C4CCOCC4)c(C=O)nc32)ncc1C#N.Cl` [Compound 73, N-(5-cyano-4-((2-(methyhthio)ethyl)amino)pyridin-2-yl)-7-formyl-6-((N-methyltetrahydro-2H-pyran-4-carboxamido)methyl)-3,4-dihydro-1,8-naphthyridine-1(2H)-carboxamide hydrochloride], the IC50 in data set [1] (120 h incubation) is 0.039 µM. For the same compound, the “inhibitory effect on FGFR4 compared with the reference compound” value against FGFR4 kinase [2] is “better inhibitory effect on FGFR4 than the reference compound”. Further, at FGFR4 kinase [3], the pIC50 was 8.64.
For the compound `CSCCNc1cc(NC(=O)N2CCCc3cc(CN(C)C(=O)C4CCOC4)c(C=O)nc32)ncc1C#N.Cl` (stereo not drawn) [Compound 76, N-(5-cyano-4-((2-(methylthio)ethyl)amino)pyridin-2-yl)-7-formyl-6-((N-methyltetrahydrofuran-3-carboxamido)methyl)-3,4-dihydro-1,8-naphthyridine-1(2H)-carboxamide hydrochloride], the “inhibitory effect on Hepatoma cell Hep3B compared with the reference compound” value in data set [1] is “better inhibitory effect”. Moreover, the IC50 in data set [1] (120 h incubation) was found to be 0.006 µM. Also, the “inhibitory effect on FGFR4 compared with the reference compound” value against FGFR4 kinase [2] is listed as “better inhibitory effect on FGFR4 than the reference compound”. The compound also had a pIC50 against FGFR4 kinase [3] of 8.68.
In the case of `CSC(C)(C)CNc1cc(NC(=O)N2CCCc3cc(CN4CCN(C)CC4=O)c(C=O)nc32)ncc1C#N` [Compound 6, N-(5-cyano-4-((2-methyl-2-(methylthio)propyl)amino)pyridin-2-yl)-7-formyl-6-((4-methyl-2-oxopiperazin-1-yl)methyl)-3,4-dihydro-1,8-naphthyridine-1 (2H)-carboxamide], the IC50 in data set [1] (120 h) came out at 0.049 µM. Further, at FGFR4 kinase [2], the “inhibitory effect on FGFR4 compared with the reference compound” value is on record as “better inhibitory effect on FGFR4 than the reference compound”. For the same compound, on FGFR4 kinase [3], the pIC50 is 8.68.
As for `CN1CCN(Cc2cc3c(nc2C=O)N(C(=O)Nc2cc(NCCSC(F)(F)F)c(C#N)cn2)CCC3)C(=O)C1` [Compound 62, N-(5-cyano-4-((2-((trifluoromethyl)thio)ethyl)amino)pyridin-2-yl)-7-formyl-6-((4-methyl-2-oxopiperazin-1-yl)methyl)-3,4-dihydro-1,8-naphthyridine-1(2H)-carboxamide], the IC50 in data set [1] (120 h incubation) came out at 0.054 µM. Moreover, the “inhibitory effect on FGFR4 compared with the reference compound” value at FGFR4 kinase [2] is listed as “better inhibitory effect on FGFR4 than the reference compound”. The negative-log IC50 (pIC50) against FGFR4 kinase [3] was 8.77.
On to `CN1CCN(Cc2cc3c(nc2C=O)N(C(=O)Nc2cc(NCCS(C)(=O)=O)c(C#N)cn2)CCC3)C(=O)C1.Cl` [Compound 72, N-(5-cyano-4-((2-(methyl-sulfonyl)ethyl)amino)pyridin-2-yl)-7-formyl-6-((4-methyl-2-oxopiperazin-1-yl)methyl)-3,4-dihydro-1,8-naphthyridine-1(2H)-carboxamide hydrochloride], for which, in data set [1] (120 h incubation), the IC50 stood at 0.282 µM. The “inhibitory effect on FGFR4 compared with the reference compound” value against FGFR4 kinase [2] is listed as “better inhibitory effect on FGFR4 than the reference compound”. This compound had a pIC50 against FGFR4 kinase [3] of 8.70.
Regarding `C[C@H](CS(C)(=O)=O)Nc1cc(NC(=O)N2CCCc3cc(CN4CCN(C)CC4=O)c(C=O)nc32)ncc1C#N` [Compound 83, N-(5-cyano-4-(((2R)-1-(methyl-sulfonyl)propan-2-yl)amino)pyridin-2-yl)-7-formyl-6-((4-methyl-2-oxopiperazin-1-yl)methyl)-3,4-dihydro-1,8-naphthyridine-1(2H)-carboxamide], the IC50 in data set [1] (120 h incubation) worked out at 0.068 µM. Moreover, the “inhibitory effect on FGFR4 compared with the reference compound” value against FGFR4 kinase [2] is “better inhibitory effect on FGFR4 than the reference compound”. The pIC50 against FGFR4 kinase [3] is 8.68.
For `C[C@H](C[S+](C)[O-])Nc1cc(NC(=O)N2CCCc3cc(CN4CCN(C)CC4=O)c(C=O)nc32)ncc1C#N` (stereo partly drawn) [Compound 69, N-(5-cyano-4-(((2R)-1-(methylsulfinyl)propan-2-yl)amino)pyridin-2-yl)-7-formyl-6-((4-methyl-2-oxopiperazin-1-yl)methyl)-3,4-dihydro-1,8-naphthyridine-1(2H)-carboxamide], in that order: 0.067 µM, “better inhibitory effect on FGFR4 than the reference compound” and 8.68.
Regarding `CSCCCNc1cc(NC(=O)N2CCCc3cc(CN4CCN(C)CC4=O)c(C=O)nc32)ncc1C#N` [Compound 64, N-(5-cyano-4-((3-(methylthio)propyl)amino)pyridin-2-yl)-7-formyl-6-((4-methyl-2-oxopiperazin-1-yl)methyl)-3,4-dihydro-1,8-naphthyridine-1(2H)-carboxamide], the “inhibitory effect on Hepatoma cell Hep3B compared with the reference compound” value in data set [1] was “better inhibitory effect”. Also, the IC50 in data set [1] (120 h incubation) turned out to be 0.018 µM. Also, the “inhibitory effect on FGFR4 compared with the reference compound” value on FGFR4 kinase [2] was “better inhibitory effect on FGFR4 than the reference compound”. In addition, the pIC50 on FGFR4 kinase [3] is 8.80.
With `CSC[C@@H](C)Nc1cc(NC(=O)N2CCCc3cc(CN4CCCC4=O)c(C=O)nc32)ncc1C#N` [Compound 7, (R)—N-(5-cyano-4-((1-(methylthio)propan-2-yl)amino)pyridin-2-yl)-7-formyl-6-((2-oxopyrrolidine-1-yl)methyl)-3,4-dihydro-1,8-naphthyridine-1 (2H)-carboxamide], in data set [1], the “inhibitory effect on Hepatoma cell Hep3B compared with the reference compound” value is “better inhibitory effect”. In addition, the IC50 in data set [1] (120 h incubation) is 0.011 µM. Further, in “PK analysis of rats”, the “exposure amount AUC0-24 h and maximum drug concentration in blood Cmax compared with the reference compound” value is recorded as “significantly higher than the reference compound”; the AUC(0-t) is 2850 ng·h/mL; the Cmax was found to be 736 ng/mL. Moreover, on FGFR4 kinase [2], the “inhibitory effect on FGFR4 compared with the reference compound” value was “better inhibitory effect on FGFR4 than the reference compound”. On FGFR4 kinase [3], this compound showed a pIC50 of 8.82.

For orientation: IC50 means the midpoint of a concentration-inhibition curve. As usually defined, the pIC50 is the negative decadic logarithm of the IC50, by convention in mol/L. Lower therefore signals a large IC50.
